What follows are compounds tested against T1, human capsaicin receptor (Homo sapiens, UniProt Q8NER1) (assay: Calcium mobilization assay, determination of antagonist activity (Example 6)). Settings: 50% decrease in fluorescence response of cells expressing human capsaicin receptor exposed to capsaicin.
T1 construct: pBK-CMV expression construct encoding the full length human capsaicin receptor; expressed in transfected cells
Format: cell-based
In short: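 HEK293 cells stably expressing full-length human capsaicin receptor, Fluo-3 AM loaded, preincubated with compound 0.5–6 h at room temperature in KRH buffer pH 7.4. Challenged with capsaicin at its EC50; FLIPR fluorescence read. IC50 is concentration halving the capsaicin-induced calcium response.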

T1 sequence (Q8NER1 whole entry): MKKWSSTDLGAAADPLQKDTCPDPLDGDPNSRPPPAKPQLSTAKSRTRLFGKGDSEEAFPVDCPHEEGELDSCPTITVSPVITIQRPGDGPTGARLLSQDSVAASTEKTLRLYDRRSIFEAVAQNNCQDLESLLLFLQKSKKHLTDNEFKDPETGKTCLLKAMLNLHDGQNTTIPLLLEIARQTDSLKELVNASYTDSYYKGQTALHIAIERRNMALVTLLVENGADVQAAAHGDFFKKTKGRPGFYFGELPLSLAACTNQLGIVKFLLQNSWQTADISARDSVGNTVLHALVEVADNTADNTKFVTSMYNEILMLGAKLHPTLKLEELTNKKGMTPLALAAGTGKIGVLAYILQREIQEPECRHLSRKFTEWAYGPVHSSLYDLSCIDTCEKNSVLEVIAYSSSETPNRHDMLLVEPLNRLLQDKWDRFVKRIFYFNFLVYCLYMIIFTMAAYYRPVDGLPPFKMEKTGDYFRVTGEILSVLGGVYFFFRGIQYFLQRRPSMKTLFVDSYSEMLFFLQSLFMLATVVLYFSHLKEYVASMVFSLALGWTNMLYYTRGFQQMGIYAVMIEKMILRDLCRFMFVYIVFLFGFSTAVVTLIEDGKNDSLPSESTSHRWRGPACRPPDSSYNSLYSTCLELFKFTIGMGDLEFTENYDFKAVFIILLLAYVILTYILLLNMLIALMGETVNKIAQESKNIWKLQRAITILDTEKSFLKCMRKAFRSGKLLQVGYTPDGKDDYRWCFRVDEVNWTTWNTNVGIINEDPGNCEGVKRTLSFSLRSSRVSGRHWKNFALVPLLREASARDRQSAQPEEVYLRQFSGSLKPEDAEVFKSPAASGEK

SMILES | IC50 [nM]
CCN(CC)c1nc(Nc2cccc(F)c2)nc(N2CCN(c3ncccc3Cl)CC2)n1 [Compound 71, 6-[4-(3-Chloro-pyridin-2-yl)-piperazin-1-yl]-N,N-diethyl-N′-(3-fluoro-phenyl)-[1,3,5]triazine-2,4-diamine] | ≤ 1000
CCN(C)c1nc(Nc2cccc(F)c2)nc(N2CCN(c3ncccc3Cl)CC2)n1 [Compound 72, 6-[4-(3-Chloro-pyridin-2-yl)-piperazin-1-yl]-N-ethyl-N′-(3-fluoro-phenyl)-N-methyl-[1,3,5]triazine-2,4-diamine] | ≤ 1000
Fc1cccc(Nc2nc(N3CCCC3)nc(N3CCN(c4ncccc4Cl)CC3)n2)c1 [Compound 73, {4-[4-(3-Chloro-pyridin-2-yl)-piperazin-1-yl]-6-pyrrolidin-1-yl-[1,3,5]triazin-2-yl}-(3-fluoro-phenyl)-amine] | ≤ 1000
CCCN(C)c1nc(Nc2cccc(F)c2)nc(N2CCN(c3ncccc3Cl)CC2)n1 [Compound 74, 6-[4-(3-Chloro-pyridin-2-yl)-piperazin-1-yl]-N-(3-fluoro-phenyl)-N′-methyl-N′-propyl-[1,3,5]triazine-2,4-diamine] | ≤ 1000
CCCCN(C)c1nc(Nc2cccc(F)c2)nc(N2CCN(c3ncccc3Cl)CC2)n1 [Compound 75, N-Butyl-6-[4-(3-chloro-pyridin-2-yl)-piperazin-1-yl]-N′-(3-fluoro-phenyl)-N-methyl-[1,3,5]triazine-2,4-diamine] | ≤ 1000
CN(C)c1nc(Nc2cccc(F)c2)nc(N2CCN(c3ncccc3Cl)CC2)n1 [Compound 76, 6-[4-(3-Chloro-pyridin-2-yl)-piperazin-1-yl]-N-(3-fluoro-phenyl)-N′,N′-dimethyl-[1,3,5]triazine-2,4-diamine] | ≤ 1000
CC1CCCN1c1nc(Nc2cccc(F)c2)nc(N2CCN(c3ncccc3Cl)CC2)n1 (stereo not drawn) [Compound 77, [4-[4-(3-Chloro-pyridin-2-yl)-piperazin-1-yl]-6-(2-methyl-pyrrolidin-1-yl)-[1,3,5]triazin-2-yl]-(3-fluoro-phenyl)-amine] | ≤ 1000
Fc1cccc(Nc2nc(N3CCCCCC3)nc(N3CCN(c4ncccc4Cl)CC3)n2)c1 [Compound 78, {4-Azepan-1-yl-6-[4-(3-chloro-pyridin-2-yl)-piperazin-1-yl]-[1,3,5]triazin-2-yl}-(3-fluoro-phenyl)-amine] | ≤ 1000
CC(C)N(C)c1nc(Nc2cccc(F)c2)nc(N2CCN(c3ncccc3Cl)CC2)n1 [Compound 79, 6-[4-(3-Chloro-pyridin-2-yl)-piperazin-1-yl]-N-(3-fluoro-phenyl)-N′-isopropyl-N′-methyl-[1,3,5]triazine-2,4-diamine] | ≤ 1000
CCN(c1nc(Nc2cccc(F)c2)nc(N2CCN(c3ncccc3Cl)CC2)n1)C(C)C [Compound 80, 6-[4-(3-Chloro-pyridin-2-yl)-piperazin-1-yl]-N-ethyl-N′-(3-fluoro-phenyl)-N-isopropyl-[1,3,5]triazine-2,4-diamine] | ≤ 1000
CCCNc1nc(Nc2cccc(F)c2)nc(N2CCN(c3ncccc3Cl)CC2)n1 [Compound 81, 6-[4-(3-Chloro-pyridin-2-yl)-piperazin-1-yl]-N-(3-fluoro-phenyl)-N′-propyl-[1,3,5]triazine-2,4-diamine] | ≤ 1000
Cc1nc(Nc2ccc(C(F)(F)F)cc2)nc(N2CCN(c3ncccc3Cl)CC2)n1 [Compound 82, {4-[4-(3-Chloro-pyridin-2-yl)-piperazin-1-yl]-6-methyl-[1,3,5]triazin-2-yl}-(4-trifluoromethyl-phenyl)-amine] | ≤ 1000
Fc1ccc(Nc2nc(N3CCOCC3)cc(N3CCN(c4ncccc4C(F)(F)F)CC3)n2)cc1 [Compound 83, (4-Fluoro-phenyl)-{4-morpholin-4-yl-6-[4-(3-trifluoromethyl-pyridin-2-yl)-piperazin-1-yl]-pyrimidin-2-yl}-amine] | ≤ 1000
FC(F)(F)c1cccnc1N1CCN(c2cc(N3CCOCC3)nc(Nc3cccc(Cl)c3)n2)CC1 [Compound 84, (3-Chloro-phenyl)-{4-morpholin-4-yl-6-[4-(3-trifluoromethyl-pyridin-2-yl)-piperazin-1-yl]-pyrimidin-2-yl}-amine] | ≤ 1000
Cc1ccccc1Nc1nc(N2CCOCC2)cc(N2CCN(c3ncccc3C(F)(F)F)CC2)n1 [Compound 85, {4-Morpholin-4-yl-6-[4-(3-trifluoromethyl-pyridin-2-yl)-piperazin-1-yl]pyrimidin-2-yl}-o-tolyl-amine] | ≤ 1000
Cc1cccc(Nc2nc(N3CCOCC3)cc(N3CCN(c4ncccc4C(F)(F)F)CC3)n2)c1 [Compound 86, {4-Morpholin-4-yl-6-[4-(3-trifluoromethyl-pyridin-2-yl)-piperazin-1-yl]-pyrimidin-2-yl}-m-tolyl-amine] | ≤ 1000
Cc1ccc(Nc2nc(N3CCOCC3)cc(N3CCN(c4ncccc4C(F)(F)F)CC3)n2)cc1 [Compound 87, {4-Morpholin-4-yl-6-[4-(3-trifluoromethyl-pyridin-2-yl)-piperazin-1-yl]-pyrimidin-2-yl}-p-tolyl-amine] | ≤ 1000

SMILES | IC50 [nM]
COc1cccc(Nc2nc(N3CCOCC3)cc(N3CCN(c4ncccc4C(F)(F)F)CC3)n2)c1 [Compound 88, (3-Methoxy-phenyl)-{4-morpholin-4-yl-6-[4-(3-trifluoromethyl-pyridin-2-yl)-piperazin-1-yl]-pyrimidin-2-yl}-amine] | ≤ 1000
COc1ccc(Nc2nc(N3CCOCC3)cc(N3CCN(c4ncccc4C(F)(F)F)CC3)n2)cc1 [Compound 89, (4-Methoxy-phenyl)-{4-morpholin-4-yl-6-[4-(3-trifluoromethyl-pyridin-2-yl)-piperazin-1-yl]-pyrimidin-2-yl}-amine] | ≤ 1000
CCN(CC)c1nc(Nc2ccc(F)cc2)nc(N2CCN(c3ncccc3Cl)CC2)n1 [Compound 90, 6-[4-(3-Chloro-pyridin-2-yl)-piperazin-1-yl]-N,N-diethyl-N′-(4-fluoro-phenyl)-[1,3,5]triazine-2,4-diamine] | ≤ 1000
CCN(CC)c1nc(Nc2ccc(F)c(F)c2)nc(N2CCN(c3ncccc3Cl)CC2)n1 [Compound 91, 6-[4-(3-Chloro-pyridin-2-yl)-piperazin-1-yl]-N-(3,4-difluoro-phenyl)-N′,N′-diethyl-[1,3,5]triazine-2,4-diamine] | ≤ 1000
CCN(CC)c1nc(Nc2cccc(Cl)c2)nc(N2CCN(c3ncccc3Cl)CC2)n1 [Compound 92, N-(3-Chloro-phenyl)-6-[4-(3-chloro-pyridin-2-yl)-piperazin-1-yl]-N′,N′-diethyl-[1,3,5]triazine-2,4-diamine] | ≤ 1000
CCN(CC)c1nc(Nc2cccc(OC)c2)nc(N2CCN(c3ncccc3Cl)CC2)n1 [Compound 93, 6-[4-(3-Chloro-pyridin-2-yl)-piperazin-1-yl]-N,N-diethyl-N′-(3-methoxy-phenyl)-[1,3,5]triazine-2,4-diamine] | ≤ 1000
CCN(CC)c1nc(Nc2ccc(F)cc2)nc(N2CCN(c3ccccn3)CC2)n1 [Compound 94, N,N-Diethyl-N′-(4-fluoro-phenyl)-6-(4-pyridin-2-yl-piperazin-1-yl)-[1,3,5]triazine-2,4-diamine] | ≤ 1000
CCN(CC)c1nc(Nc2ccc(F)c(F)c2)nc(N2CCN(c3ccccn3)CC2)n1 [Compound 95, N-(3,4-Difluoro-phenyl)-N′,N′-diethyl-6-(4-pyridin-2-yl-piperazin-1-yl)-[1,3,5]triazine-2,4-diamine] | ≤ 1000
FC(F)(F)c1ccc(Nc2nc(N3CCOCC3)nc(N3CCN(c4ncccc4Cl)CC3)n2)cc1 [Compound 96, {4-[4-(3-Chloro-pyridin-2-yl)-piperazin-1-yl]-6-morpholin-4-yl-[1,3,5]triazin-2-yl}-(4-trifluoromethyl-phenyl)-amine] | ≤ 1000
Clc1cccnc1N1CCN(c2nc(Nc3ccccc3)nc(N3CCOCC3)n2)CC1 [Compound 97, {4-[4-(3-Chloro-pyridin-2-yl)-piperazin-1-yl]-6-morpholin-4-yl-[1,3,5]triazin-2-yl}-phenyl-amine] | ≤ 1000
Fc1ccc(Nc2cc(N3CCN(c4ccccn4)CC3)nc(N3CCOCC3)n2)cc1 [Compound 98, (4-Fluoro-phenyl)-[2-morpholin-4-yl-6-(4-pyridin-2-yl-piperazin-1-yl)-pyrimidin-4-yl]-amine] | ≤ 1000
CCN(CC)c1nc(Nc2ccc(F)c(F)c2)nc(N2CCN(c3ncccc3C(F)(F)F)C[C@H]2C)n1 [Compound 99, N-(3,4-Difluoro-phenyl)-N′,N′-diethyl-6-[2-methyl-4-(3-trifluoromethyl-pyridin-2-yl)-piperazin-1-yl]-[1,3,5]triazine-2,4-diamine (R)] | ≤ 1000
CCN(CC)c1nc(Nc2ccc(F)c(F)c2)nc(N2CCN(c3ncccc3Cl)C[C@H]2C)n1 [Compound 100, 6-[4-(3-Chloro-pyridin-2-yl)-2-methyl-piperazin-1-yl]-N-(3,4-difluoro-phenyl)-N′,N′-diethyl-[1,3,5]triazine-2,4-diamine (R)] | ≤ 1000
C[C@@H]1CN(c2ncccc2Cl)CCN1c1nc(Nc2ccc(F)c(F)c2)nc(N2CCOCC2)n1 [Compound 101, {4-[4-(3-Chloro-pyridin-2-yl)-2-methyl-piperazin-1-yl]-6-morpholin-4-yl-[1,3,5]triazin-2-yl}-(3,4-difluoro-phenyl)-amine (R)] | ≤ 1000
CCN(CC)c1nc(Nc2ccc(F)c(F)c2)nc(N2CCN(c3ncccc3S(C)(=O)=O)C[C@H]2C)n1 [Compound 102, N-(3,4-Difluoro-phenyl)-N′,N′-diethyl-6-[4-(3-methanesulfonyl-pyridin-2-yl)-2-methyl-piperazin-1-yl]-[1,3,5]triazine-2,4-diamine (R)] | ≤ 1000
C[C@@H]1CN(c2ncccc2S(C)(=O)=O)CCN1c1nc(Nc2ccc(F)c(F)c2)nc(N2CCOCC2)n1 [Compound 103, (3,4-Difluoro-phenyl)-{4-[4-(3-methanesulfonyl-pyridin-2-yl)-2-methyl-piperazin-1-yl]-6-morpholin-4-yl-[1,3,5]triazin-2-yl}-amine (R)] | ≤ 1000

— patent publication US20070043049A1, “Substituted heterocyclic diarylamine analogues” (Neurogen Corporation, priority 2003, published 2007)
